Tested on: CYPRO
Test: In-water applied (paddy) greenhouse weed control, CYPRO
Type: in vivo, Cyperus rotundus L.
Settings: 19 DAA
Experimental: Weed seeds or nutlets of the desired test plant species were planted in puddled soil (mud) prepared by mixing a shredded, non-sterilized mineral soil (50.5 percent silt, 25.5 percent clay, and 24 percent sand, with a pH of about 7.6 and an organic matter content of about 2.9 percent) and water at a 1:1 volumetric ratio. The prepared mud was dispensed in 365 mL aliquots into 16-ounce (oz.) non-perforated plastic pots with a surface area of 86.59 square centimeters (cm^2) leaving a headspace of 3 centimeters (cm) in each pot. Mud was allowed to dry overnight prior to planting or transplanting. Rice seeds were planted in Sun Gro MetroMix® 306 planting mixture, which typically has a pH of 6.0 to 6.8 and an organic matter content of about 30 percent, in plastic plug trays. Seedlings at the second or third leaf stage of growth were transplanted into 840 mL of mud contained in 32-oz. non-perforated plastic pots with a surface area of 86.59 cm^2 4 days prior to herbicide application. The paddy was created by filling the headspace of the pots with 2.5 to 3 cm of water. When required to ensure good germination and healthy plants, a fungicide treatment and/or other chemical or physical treatment was applied. The plants were grown for 4-22 days in a greenhouse with an approximate 14 h photoperiod which was maintained at about 29′C during the day and 26° C. during the night. Nutrients were added as Osmocote® (19:6:12, N:P:K+minor nutrients) at 2 g per 16-oz. pot and 4 g per 960-mL 32-oz. pot. Water was added on a regular basis to maintain the paddy flood, and supplemental lighting was provided with overhead metal halide 1000-Watt lamps as necessary. The plants were employed for testing when they reached the second or third true leaf stage.
Treatments consisted of the acid or esters of 4-amino-3-chloro-5-fluoro-6-(4-chloro-2-fluoro-3-methoxy-phenyl)pyridine-2-carboxylic acid (compound A) each formulated as an SC and various herbicidal components alone and in combination. Forms of compound A were applied on an acid equivalent basis.
Other herbicidal components were applied on an active ingredient basis and included auxin transport inhibiting (ATI) herbicides chlorflurenol-methyl (technical material), chlorflurenol (technical material), diflufenzopyr (technical material), dilfufenzopyr sodium (technical material), flurenol-methyl (technical material,) and naptalam (technical material).
Treatment requirements for each compound or herbicidal component were calculated based upon the rates being tested, the concentration of active ingredient or acid equivalent in the formulation, an application volume of 2 mL per component per pot, and an application area of 86.59 cm^2 per pot.
For formulated compounds, a measured amount was placed in an individual 100 or 200 mL glass vial and was dissolved in a volume of 1.25% (v/v) Agri-Dex® crop oil concentrate to obtain application solutions.
For technical grade compounds, a weighed amount was placed in an individual 100 to 200 mL glass vial and was dissolved in a volume of acetone to obtain concentrated stock solutions. […] The concentrated stock solutions obtained were diluted with an equivalent volume of an aqueous mixture containing 2.5% (v/v) crop oil concentrate so that the final application solutions contained 1.25% (v/v) crop oil concentrate.
Applications were made by injecting with a pipetter appropriate amounts of the application solutions, individually and sequentially, into the aqueous layer of the paddy. Control plants were treated in the same manner with the solvent blank. Applications were made so that all treated plant material received the same concentrations of acetone and crop oil concentrate.
The treated plants and control plants were placed in a greenhouse as described above and water was added as needed to maintain a paddy flood. […]

## COc1c(Cl)ccc(-c2nc(C(=O)OCc3ccccc3)c(Cl)c(N)c2F)c1F [Compound A Benzyl Ester]
8 gae/ha
  Visual Weed Control (%) Obs: 50%
16 gae/ha
  Visual Weed Control (%) Obs: 85%
32 gae/ha
  Visual Weed Control (%) Obs: 90%

Source: patent US20140031217A1, “HERBICIDAL COMPOSITIONS COMPRISING 4-AMINO-3-CHLORO-5-FLUORO-6-(4-CHLORO-2-FLUORO-3-METHOXYPHENYL)PYRIDINE-2-CARBOXYLIC ACID OR A DERIVATIVE THEREOF AND AUXIN TRANSPORT INHIBITORS” (DOW AGROSCIENCES LLC, priority 2012, published 2014)
